Patent US12661308B2, “Antimicrobial AZO compounds and uses thereof” (The Regents Of The University Of Colorado, A Body Corporate, priority 2019, dated 2026)
“Also recorded” adds a separate entry of the source.

What was measured:
[1] = tested on: L929 mouse epithelial cells; assay: MTT cytotoxicity of coated substrates (Example 3); assay type: cell-based; details: 0.5 mg/mL and 50 mg/mL coated substrates, cells grown 100 hr, relative to uncoated sample and negative control
Method: In this Example, the cytotoxicity of polymeric substrates coated with 0.5 mg/mL OH-AAZO and 50 mg/mL OH-AAZO in the manner described in Example 1 were tested using L929 mouse epithelial cells. The following six samples were prepared: polymeric substrate coated with 50 mg/mL OH-AAZO, polymeric substrate coated with 0.5 mg/mL OH-AAZO, uncoated polymeric substrate, positive control, negative control, and an empty well. All coatings were spin coated. All samples were run in triplicate.
The cells were grown on substrates for 100 hr with media replacement when necessary. L929 conditions: Passage 3. Initial concentration of cells: 1.67×10^4 cells/mL.
Methods and assumptions: • Wells containing MTT product were analyzed at 570 nm. • OD570 values were corrected based on OD570 values of wells containing MTT product+other reagents only (no cells). • Assumes 100% cell death (i.e., 0% cell viability) in these positive control wells. • Negative control (−) wells contained cells grown with no substrate. • Assumes all cell death occurred naturally.
Cell viability was calculated using the following equation: […]

[2] = tested on: S. oralis (ATCC 9811) biofilm; assay: Biofilm growth study, S. oralis; assay type: cell-based, Streptococcus oralis; details: 50 mg/mL coated substrate, 24 h time-period
Method: S. oralis and A. actinomycetemcomitans were streaked on a BHI agar plate and incubated at 37° C. and 5% CO2 for 48 h. An isolated colony was inoculated in 5 mL BHI media for 12 h under the same incubation conditions, followed by a 1:10 dilution in BHI media in a 96-well plate containing the substrates of interest. […]
(§1) Following biofilm growth in the 96-well plate, the substrates were aseptically removed from the 96-well plate and placed in a vial containing 5 mL of 1× PBS solution. The vials were sonicated in a water bath for 10 min at 45° C., and the wells that previously contained the substrates were briefly sonicated using a probe sonicator (3 W RMS output) for 10 s per well. 200 μL aliquots of the sonicated PBS solution were placed in a 96-well plate and diluted 1:10 in each subsequent row. 20 μL aliquots of the sonicated media wells were placed in a 96-well plate containing 180 μL of PBS solution and diluted 1:10 in each subsequent row. Each column was then plated at a volume of 10 μL on a BHI agar plate in triplicate. The plates were then incubated at 37° C. and 5% CO2 for 48 h. The CFUs on each plate were counted in order to quantify the amount of biofilm remaining on the surface of the substrate and the bacteria remaining in the media after the removal of the substrate using the following equations: […]

[3] = tested on: Methicillin-susceptible S. aureus biofilm; assay: Biofilm growth study, S. aureus; assay type: cell-based, Staphylococcus aureus; details: 50 mg/mL coated substrate, 24 h time-period
Method: Methicillin-susceptible S. aureus biofilms were grown from a 20 h BHI liquid culture inoculated with an S. aureus colony. The liquid culture was diluted 10^3 to a stock solution in BHI, then diluted 1:10 in BHI media containing 0.4 wt. % glucose in a 96-well plate. The plate was incubated in the dark at 37 ° C. for 24 h.
as §1

[4] = tested on: S. mutans; assay: Kill curve kinetic study of S. mutans in media surrounding the coated substrate; assay type: cell-based, Streptococcus mutans
Method: FIG. 13 are images from a complete plating of media of S. mutans in contact with OH-AAZO-coated substrates at different timepoints following seeding. The media sampled shown in FIG. 13 (A) at t=0 h was serial diluted as described in Example 4 (below) and gave a total CFU count of (8.0±3.2)×10^6 CFUs. The media sampled shown in FIG. 13 (B) at t=4 h was streaked across the entire plate and gave a total CFU count of 8 CFUs. The media sampled shown in FIG. 13 (C) at t=24 h was streaked across the entire plate and gave a total CFU count of 0 CFUs.
We sampled aliquots of the media containing S. mutans surrounding the OH-AAZO substrate at different time points (FIG. 4). At t=0, S. mutans colonies (1×10^6 CFUs) were introduced to the OH-AAZO coated substrate. At t=4 h, the CFU count in the well was reduced 2-log, and by t=6 h, the CFU count had reduced to zero.

[5] = tested on: S. mutans biofilm; assay: S. mutans biofilm growth on coated pit and fissure dental sealants; assay type: cell-based, Streptococcus mutans; details: coating on pit and fissure sealants
Description: In some implementations, the azobenzene polymers can be used as an antimicrobial coating on pit and fissure dental sealants. […] Azobenzene coatings can be incorporated into pit and fissure sealants as an anti-bacterial coating to prevent tooth decay.

Compound: C=CC(=O)Oc1ccccc1/N=N/c1ccccc1O [OH-AAZO, phenolic acrylated azobenzene]
- cytotoxicity (cell viability, MTT) [1]: non-cytotoxic; also recorded: does not contribute significantly to cytotoxicity
- S. oralis growth on coated substrate and in media [2]: did not grow on the coated substrate nor in the media; also recorded: antibacterial effect was only observed
- antibacterial effect on S. aureus biofilm (CFUs) [3]: no discernable antibacterial effect or reduction in CFUs
- total CFU count, complete plating of media ([4]; t=0 h, serial diluted): (8.0±3.2)×10^6 CFUs
- reduction of CFU count in the well ([4]; t=4 h, from 1×10^6 CFUs at t=0): 2 log
- total CFU count, complete plating of media ([4]; t=4 h, streaked across the entire plate): 8 CFUs
- S. mutans CFU count in the media ([4]; t=6 h): zero and complete S. mutans death and absence of S. mutans
- S. mutans biofilm growth [5]: absent
